{"source": "patent US20080227797A1", "about": "“Pyridopyrimidine Derivatives as Pde4 Inhibitors for the Treatment of Inflammatory and Immune Diseases” (ASTRAZENECA AB, priority 2005, published 2008)", "data": [{"target": "recombinant Human Phosphodiesterase B2 (PDE4B2) (Homo sapiens, UniProt Q07343)", "sequence (Q07343 1-564 isoform Q07343-2)": "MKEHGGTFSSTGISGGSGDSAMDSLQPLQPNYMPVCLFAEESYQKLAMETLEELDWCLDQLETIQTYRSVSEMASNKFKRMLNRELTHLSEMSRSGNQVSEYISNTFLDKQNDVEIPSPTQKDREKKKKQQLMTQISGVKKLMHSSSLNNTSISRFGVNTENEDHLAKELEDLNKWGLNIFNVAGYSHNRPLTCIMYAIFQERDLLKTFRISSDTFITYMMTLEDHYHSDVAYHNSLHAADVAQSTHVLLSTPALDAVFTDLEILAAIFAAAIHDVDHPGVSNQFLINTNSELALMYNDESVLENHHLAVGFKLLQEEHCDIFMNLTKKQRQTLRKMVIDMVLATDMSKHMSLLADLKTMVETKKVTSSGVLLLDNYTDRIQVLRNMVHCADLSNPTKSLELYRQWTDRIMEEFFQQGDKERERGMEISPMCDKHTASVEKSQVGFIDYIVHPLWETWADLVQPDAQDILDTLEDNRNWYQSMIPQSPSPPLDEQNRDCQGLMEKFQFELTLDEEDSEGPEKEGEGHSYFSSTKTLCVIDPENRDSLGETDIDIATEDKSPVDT", "test": "Human Phosphodiesterase B2 Alpha Screen Assay", "format": "biochemical", "settings": "cAMP substrate, Alpha Screen cAMP kit, 60 minutes at room temperature", "procedure": "Human Phosphodiesterase B2 Alpha Screen Assay\nThe assay uses recombinant Human Phosphodiesterase B2 (PDE4B2) produced in house (PrAZL0133), stored at −20° C. The substrate uses cAMP, part of the Alpha Screen cAMP kit (Perkin Elmer, Cat# 6760625M), stored at 4° C. The Alpha Screen kit also includes biotinylated cAMP, acceptor and donor beads.\nThe assay additions were as follows: Test compounds and controls were added to white 384-well flat-bottom plates (Greiner, Cat# 781075), 0.2 μl in 100% DMSO, followed by 10 μl PDE4B2 in reaction buffer. The reaction buffer constitution was: 50 mM Tris (pH 7.5), 8.3 mM MgCl2, 1.7 mM EGTA and 0.01% (w/v) Brij®35. The enzyme and the compounds were incubated at room temperature for 15 minutes. Then 10 μl cAMP in reaction buffer was added. The assay was stopped after 60 minutes incubation at room temperature by adding 10 μl acceptor beads in detection buffer with 40 mM EDTA. The detection buffer constitution was: 5 mM Tris (pH 7.5), 0.1% (w/v) BSA and 0.1% (v/v) Tween 20. This addition followed by an addition of 10 μl donor beads in detection buffer, with biotinylated cAMP. The plates were then incubated, dark at room temperature, for 5 hours followed by measurement on a Fusion™-α analyser. IC50 values (presented in Table 1) were determined using Xlfit curve fitting using model 205.", "units": {"IC50": "nM"}, "values": [{"smiles": "O=C(c1n[nH]c2ccccc12)N1CCC(n2c(=O)c3cc(F)cnc3n(-c3ccc(F)c(F)c3)c2=O)CC1", "note": "[Example 76, 1-(3,4-difluorophenyl)-6-fluoro-3-[1-(1H-indazol-3-ylcarbonyl)piperidin-4-yl]pyrido[2,3-d]pyrimidine-2,4(1H,3H)-dione]", "IC50": 9.5}, {"smiles": "O=C(N[C@H]1CC[C@@H](n2c(=O)c3cc(F)cnc3n(-c3ccc(F)c(F)c3)c2=O)CC1)C(O)c1ccccc1", "note": "(relative stereo) [Example 2, N-{cis-4-[1-(3,4-difluorophenyl)-6-fluoro-2,4-dioxo-1,4-dihydropyrido[2,3-d]pyrimidin-3(2H)-yl]cyclohexyl}-2-hydroxy-2-phenylacetamide]", "IC50": 0.9}, {"smiles": "O=C(N[C@H]1CC[C@@H](n2c(=O)c3cc(F)cnc3n(-c3ccc(F)c(F)c3)c2=O)CC1)c1cccc(O)c1", "note": "[Example 5, N-{cis-4-[1-(3,4-difluorophenyl)-6-fluoro-2,4-dioxo-1,4-dihydropyrido[2,3-d]pyrimidin-3(2H)-yl]cyclohexyl}-3-hydroxybenzamide]", "IC50": 2.2}, {"smiles": "COC(=O)c1cccc(-n2c(=O)n([C@H]3CC[C@@H](NC(=O)C4CCN(C)CC4)CC3)c(=O)c3cc(F)cnc32)c1", "note": "[Example 73, methyl 3-[6-fluoro-3-(cis-4-{[(1-methylpiperidin-4-yl)carbonyl]amino}cyclohexyl)-2,4-dioxo-3,4-dihydropyrido[2,3-d]pyrimidin-1(2H)-yl]benzoate]", "IC50": 62.6}, {"smiles": "O=C(c1n[nH]c2ccccc12)N1CC[C@@H](n2c(=O)c3cc(F)cnc3n(-c3ccc(F)c(F)c3)c2=O)C1", "note": "[Example 79, 1-(3,4-difluorophenyl)-6-fluoro-3-[(3R)-1-(1H-indazol-3-ylcarbonyl)pyrrolidin-3-yl]pyrido[2,3-d]pyrimidine-2,4(1H,3H)-dione]", "IC50": 15.4}, {"smiles": "COc1cccc(C(=O)N[C@H]2CC[C@@H](n3c(=O)c4cc(F)cnc4n(-c4ccc(F)c(F)c4)c3=O)CC2)c1O", "note": "[Example 17, N-{cis-4-[1-(3,4-difluorophenyl)-6-fluoro-2,4-dioxo-1,4-dihydropyrido[2,3-d]pyrimidin-3(2H)-yl]cyclohexyl}-2-hydroxy-3-methoxybenzamide]", "IC50": 1.8}, {"smiles": "CS(=O)(=O)c1cccc(-n2c(=O)n([C@H]3CC[C@@H](NC(=O)CO)CC3)c(=O)c3cc(F)cnc32)c1", "note": "[Example 44, N-{cis-4-[6-fluoro-1-[3-(methylsulfonyl)phenyl]-2,4-dioxo-1,4-dihydropyrido[2,3-d]pyrimidin-3(2H)-yl]cyclohexyl}-2-hydroxyacetamide]", "IC50": 432}, {"smiles": "O=C(N[C@H]1CC[C@@H](n2c(=O)c3cc(F)cnc3n(-c3ccc(F)c(F)c3)c2=O)CC1)c1cc2nccnc2s1", "note": "[Example 106, N-{cis-4-[1-(3,4-difluorophenyl)-6-fluoro-2,4-dioxo-1,4-dihydropyrido[2,3-d]pyrimidin-3(2H)-yl]cyclohexyl}thieno[2,3-b]pyrazine-6-carboxamide]", "IC50": 3.89}, {"smiles": "COC(=O)c1cccc(-n2c(=O)n([C@H]3CC[C@@H](NC(=O)c4cccs4)CC3)c(=O)c3cc(F)cnc32)c1", "note": "[Example 66, methyl 3-[6-fluoro-2,4-dioxo-3-{cis-4-[(2-thienylcarbonyl)amino]cyclohexyl}-3,4-dihydropyrido[2,3-d]pyrimidin-1(2H)-yl]benzoate]", "IC50": 4.8}, {"smiles": "O=C(N[C@H]1CC[C@@H](n2c(=O)c3cc(F)cnc3n(-c3ccc(F)c(F)c3)c2=O)CC1)c1nc2ccccc2s1", "note": "[Example 104, N-{cis-4-[1-(3,4-difluorophenyl)-6-fluoro-2,4-dioxo-1,4-dihydropyrido[2,3-d]pyrimidin-3(2H)-yl]cyclohexyl}-1,3-benzothiazole-2-carboxamide]", "IC50": 2.09}, {"smiles": "O=C(N[C@H]1CC[C@@H](n2c(=O)c3cc(F)cnc3n(-c3ccc(F)c(F)c3)c2=O)CC1)c1ccccc1O", "note": "[Example 10, N-{cis-4-[1-(3,4-difluorophenyl)-6-fluoro-2,4-dioxo-1,4-dihydropyrido[2,3-d]pyrimidin-3(2H)-yl]cyclohexyl}-2-hydroxybenzamide]", "IC50": 2.6}, {"smiles": "O=C(N[C@H]1CC[C@@H](n2c(=O)c3cc(F)cnc3n(-c3ccc(F)c(F)c3)c2=O)CC1)c1ccc2[nH]cnc2c1", "note": "[Example 88, N-{cis-4-[1-(3,4-difluorophenyl)-6-fluoro-2,4-dioxo-1,4-dihydropyrido[2,3-d]pyrimidin-3(2H)-yl]cyclohexyl}-1H-benzimidazole-5-carboxamide]", "IC50": 3.38}, {"smiles": "COC(=O)c1cccc(-n2c(=O)n([C@H]3CC[C@@H](NC(=O)C4CCC4)CC3)c(=O)c3cc(F)cnc32)c1", "note": "[Example 61, methyl 3-[3-{cis-4-[(cyclobutylcarbonyl)amino]cyclohexyl}-6-fluoro-2,4-dioxo-3,4-dihydropyrido[2,3-d]pyrimidin-1(2H)-yl]benzoate]", "IC50": 5.2}, {"smiles": "CSc1cccc(-n2c(=O)n([C@H]3CC[C@@H](NC(=O)c4cc(Cl)ccc4O)CC3)c(=O)c3cc(F)cnc32)c1", "note": "[Example 34, 5-chloro-N-{cis-4-[6-fluoro-1-[3-(methylthio)phenyl]-2,4-dioxo-1,4-dihydropyrido[2,3-d]pyrimidin-3(2H)-yl]cyclohexyl}-2-hydroxybenzamide]", "IC50": 3.2}, {"smiles": "O=C(N[C@H]1CC[C@@H](n2c(=O)c3cc(F)cnc3n(-c3ccc(F)c(F)c3)c2=O)CC1)c1ccc(O)c(Cl)c1", "note": "[Example 12, 3-chloro-N-{cis-4-[1-(3,4-difluorophenyl)-6-fluoro-2,4-dioxo-1,4-dihydropyrido[2,3-d]pyrimidin-3(2H)-yl]cyclohexyl}-4-hydroxybenzamide]", "IC50": 2.2}, {"smiles": "O=C(N[C@H]1CC[C@@H](n2c(=O)c3cc(F)cnc3n(-c3ccc(F)c(F)c3)c2=O)CC1)c1cc[nH]c1", "note": "[Example 96, N-{cis-4-[1-(3,4-difluorophenyl)-6-fluoro-2,4-dioxo-1,4-dihydropyrido[2,3-d]pyrimidin-3(2H)-yl]cyclohexyl}-1H-pyrrole-3-carboxamide]", "IC50": 6.68}, {"smiles": "CC(C)C[C@H](O)C(=O)N[C@H]1CC[C@@H](n2c(=O)c3cc(F)cnc3n(-c3ccc(F)c(F)c3)c2=O)CC1", "note": "[Example 21, (2S)-N-{cis-4-[1-(3,4-difluorophenyl)-6-fluoro-2,4-dioxo-1,4-dihydropyrido[2,3-d]pyrimidin-3(2H)-yl]cyclohexyl}-2-hydroxy-4-methylpentanamide]", "IC50": 3.6}, {"smiles": "Cc1ccc(O)c(C(=O)N[C@H]2CC[C@@H](N3C(=O)c4cc(F)cnc4N(c4ccc(F)c(F)c4)[S+]3[O-])CC2)c1", "note": "(relative stereo) [Example 46, N-{cis-4-[1-(3,4-Difluorophenyl)-6-fluoro-2-oxido-4-oxo-1,4-dihydro-3H-pyrido[2,3-c][1,2,6]thiadiazin-3-yl]cyclohexyl}-2-hydroxy-5-methylbenzamide]", "IC50": 129}, {"smiles": "CCC(=O)N[C@H]1CC[C@@H](n2c(=O)c3cc(F)cnc3n(-c3cccc(SC)c3)c2=O)CC1", "note": "[Example 56, N-{cis-4-[6-fluoro-1-[3-(methylthio)phenyl]-2,4-dioxo-1,4-dihydropyrido[2,3-d]pyrimidin-3(2H)-yl]cyclohexyl}propanamide]", "IC50": 7.2}, {"smiles": "COC(=O)c1cccc(-n2c(=O)n([C@H]3CC[C@@H](NC(C)=O)CC3)c(=O)c3cc(F)cnc32)c1", "note": "[Example 67, methyl 3-[3-[cis-4-(acetylamino)cyclohexyl]-6-fluoro-2,4-dioxo-3,4-dihydropyrido[2,3-d]pyrimidin-1(2H)-yl]benzoate]", "IC50": 21.2}, {"smiles": "O=C(N[C@H]1CC[C@@H](n2c(=O)c3cc(F)cnc3n(-c3ccc(F)c(F)c3)c2=O)CC1)C1(O)CC1", "note": "[Example 52, N-{cis-4-[1-(3,4-difluorophenyl)-6-fluoro-2,4-dioxo-1,4-dihydropyrido[2,3-d]pyrimidin-3(2H)-yl]cyclohexyl}-1-hydroxycyclopropanecarboxamide]", "IC50": 18.6}, {"smiles": "CSc1cccc(-n2c(=O)n([C@H]3CC[C@@H](NC(=O)C(C)(C)O)CC3)c(=O)c3cc(F)cnc32)c1", "note": "[Example 59, N-{cis-4-[6-fluoro-1-[3-(methylthio)phenyl]-2,4-dioxo-1,4-dihydropyrido[2,3-d]pyrimidin-3(2H)-yl]cyclohexyl}-2-hydroxy-2-methylpropanamide]", "IC50": 14.9}, {"smiles": "CS(=O)(=O)c1cccc(-n2c(=O)n([C@H]3CC[C@@H](NC(=O)[C@H](O)c4ccccc4)CC3)c(=O)c3cc(F)cnc32)c1", "note": "[Example 42, (2R)-N-{cis-4-[6-fluoro-1-[3-(methylsulfonyl)phenyl]-2,4-dioxo-1,4-dihydropyrido[2,3-d]pyrimidin-3(2H)-yl]cyclohexyl}-2-hydroxy-2-phenylacetamide]", "IC50": "< 16"}, {"smiles": "COc1cc(C(=O)N[C@H]2CC[C@@H](n3c(=O)c4cc(F)cnc4n(-c4ccc(F)c(F)c4)c3=O)CC2)ccc1O", "note": "[Example 14, N-{cis-4-[1-(3,4-difluorophenyl)-6-fluoro-2,4-dioxo-1,4-dihydropyrido[2,3-d]pyrimidin-3(2H)-yl]cyclohexyl}-4-hydroxy-3-methoxybenzamide]", "IC50": 1.5}, {"smiles": "O=C(c1n[nH]c2ccccc12)N1CC[C@H](n2c(=O)c3cc(F)cnc3n(-c3ccc(F)c(F)c3)c2=O)C1", "note": "[Example 83, 1-(3,4-difluorophenyl)-6-fluoro-3-[(3S)-1-(1H-indazol-3-ylcarbonyl)pyrrolidin-3-yl]pyrido[2,3-d]pyrimidine-2,4(1H,3H)-dione]", "IC50": 9.2}]}]}
